Results reported in patent US20250144067A1, “PERSONALIZED STARVATION THERAPY FOR CANCER” (Faeth Therapeutics, Inc., priority 2021, published 2025).
Where a name gives a salt, the structure may show the parent alone.

How the values were obtained:
[1] = system: NCI-H292 lung cancer cells; assay: FDA drug screening, complete media vs cholesterol-free media with simvastatin (TABLE 2); type: cell-based, human; conditions: for Cholesterol-free media + simvastatin (0.04 μM) / Complete Media: NCI-H292 cells
[2] = system: NCI-H292 lung cancer cells; assay: FDA drug screening, complete media vs cholesterol-free media without statin (TABLE 1); type: cell-based, human; conditions: for Cholesterol-free / Complete: NCI-H292 cells; for Cholesterol-free: cholesterol-free media without statin; for Complete: complete media
[3] = cholesterol-free media with simvastatin 0.04 μM, cell growth value in FDA drug screen
[4] = complete media, cell growth value in FDA drug screen
[5] = complete media minus cholesterol-free media + simvastatin, >0 enhanced anti-cancer activity, about 0 neutral, <0 antagonist
[6] = Complete minus Cholesterol-free, >0 enhanced anti-cancer activity, about 0 neutral, <0 antagonist
[7] = FDA drug library screen, cholesterol-free media with simvastatin 0.04 μM
[8] = FDA drug library screen, complete media
[9] = FDA library drug in cholesterol-free media with simvastatin 0.04 μM
[10] = FDA library drug in complete media
[11] = complete media vs cholesterol-free media + simvastatin (0.04 μM), >0 enhanced anti-cancer activity, about 0 neutral, <0 antagonist
[12] = complete vs cholesterol-free media, >0 enhanced anti-cancer activity, about 0 neutral, <0 antagonist

SMILES	Difference [1, 5]	Difference [2, 6]	Cholesterol-free [2]	Complete [2]	Cholesterol-free media + simvastatin (0.04 μM) [1, 7]	Complete Media [1, 8]	Cholesterol-free ([2]; FDA drug library screen)	Complete ([2]; FDA drug library screen)	Cholesterol-free media + simvastatin (0.04 μM) [1, 9]	Complete Media [1, 10]	Difference [1, 11]	Difference [2, 12]	further results
CN(C)C(=O)c1cc2cnc(Nc3ccc(N4CCNCC4)cn3)nc2n1C1CCCC1 [Ribociclib]	0.11	−0.30	1.15	0.8537									Cholesterol-free media + simvastatin (0.04 μM) [1, 3]: 0.6195; Complete Media [1, 4]: 0.7338
CCCC(=O)OC[C@@H](OC(=O)CCC)[C@@H](OC(=O)CCC)[C@H](Cn1c2nc(=O)[nH]c(=O)c-2nc2cc(C)c(C)cc21)OC(=O)CCC [Riboflavin Tetrabutyrate]					1.163	1.747	0.7766	0.8432					Difference ([1]; complete media minus cholesterol-free media + simvastatin, […]): 0.58; Difference ([2]; Complete minus Cholesterol-free, […]): 0.07
NC[C@H]1O[C@H](O[C@H]2[C@H](O[C@@H]3O[C@H](CO)[C@@H](O)[C@H]3O)[C@@H](O)[C@H](N)C[C@@H]2N)[C@H](N)[C@@H](O)[C@@H]1O.O=S(=O)(O)O [Ribostamycin (sulfate)]		−0.22	1.714	1.495					1.833	1.478	−0.36		
CO[C@H]1/C=C/O[C@@]2(C)Oc3c(C)c(O)c4c(c3C2=O)C2=NC3(CCN(CC(C)C)CC3)NC2=C(NC(=O)/C(C)=C\C=C\[C@H](C)[C@H](O)[C@@H](C)[C@@H](O)[C@@H](C)[C@H](OC(C)=O)[C@@H]1C)C4=O [Rifabutin]							0.7322	0.8211			−0.26	0.09	Cholesterol-free media + simvastatin (0.04 μM) ([1]; drug in cholesterol-free media with simvastatin 0.04 μM): 1.205; Complete Media ([1]; drug in complete media): 0.9499
CO[C@H]1/C=C/O[C@@]2(C)Oc3c(C)c(O)c4c(O)c(c(/C=N/N5CCN(C)CC5)c(O)c4c3C2=O)NC(=O)/C(C)=C\C=C\[C@H](C)[C@H](O)[C@@H](C)[C@@H](O)[C@@H](C)[C@H](OC(C)=O)[C@@H]1C [Rifampicin]							0.7396	1.143	1.219	0.8641	−0.36	0.40	
CO[C@H]1/C=C/O[C@@]2(C)Oc3c(C)c([O-])c4c(O)c(cc(O)c4c3C2=O)NC(=O)/C(C)=C\C=C\[C@H](C)[C@H](O)[C@@H](C)[C@@H](O)[C@@H](C)[C@H](OC(C)=O)[C@@H]1C.[Na+] [Rifamycin (sodium)]			2.314	1.878					1.045	0.7505	−0.29		Difference ([2]; complete vs cholesterol-free media, greater than 0 enhanced anti-cancer activity, about 0 neutral, below 0 antagonists): −0.44
CO[C@H]1/C=C/O[C@@]2(C)Oc3c(C)c(O)c4c(O)c(c(/C=N/N5CCN(C6CCCC6)CC5)c(O)c4c3C2=O)NC(=O)/C(C)=C\C=C\[C@H](C)[C@H](O)[C@@H](C)[C@@H](O)[C@@H](C)[C@H](OC(C)=O)[C@@H]1C [Rifapentine]	0.36	−0.06			1.582	1.938	1.056	0.9967					
CO[C@H]1/C=C/O[C@@]2(C)Oc3c(C)c(O)c4c(O)c(c5c(nc6cc(C)ccn65)c4c3C2=O)NC(=O)/C(C)=C\C=C\[C@H](C)[C@H](O)[C@@H](C)[C@@H](O)[C@@H](C)[C@H](OC(C)=O)[C@@H]1C [Rifaximin]					0.8832	0.7304	0.8156	1.163			−0.15	0.35	
Cc1cc(/C=C/C#N)cc(C)c1Nc1ccnc(Nc2ccc(C#N)cc2)n1 [Rilpivirine]		0.06					0.8235	0.8865	1.859	1.359	−0.50		
Nc1nc2ccc(OC(F)(F)F)cc2s1 [Riluzole hydrochloride]	0.02	−0.27	1.152	0.8769									Cholesterol-free media + simvastatin (0.04 μM) [1, 3]: 0.9663; Complete Media [1, 4]: 0.9877
